Our source for the IC50, fEC50 and inhibition in vivo values is ChEMBL document CHEMBL3393054, “Development of 2-aminooxazoline 3-azaxanthenes as orally efficacious β-secretase inhibitors for the potential treatment of Alzheimer's disease” (Bioorg Med Chem Lett, 2015).

Experiment [1] concerns the target T1, Beta-secretase 1 (Homo sapiens, UniProt P56817).
In experiment [2] the target is T1, Beta-secretase 1. The source holds these as a separate data set.
For a further experiment, the target named is Cathepsin D (Homo sapiens, UniProt P07339).
The species named for experiment [3] is Rattus norvegicus. The following applies: dose 10 mg/kg; route oral.
Experiment [4] is filed under the species Rattus norvegicus. As to conditions: dose 10 mg/kg; route oral. The source holds these as a separate data set.
The species named for experiment [5] is Rattus norvegicus. Nature of the experiment: animal or person. The following applies: Sprague-Dawley, Cerebrospinal fluid, po, 4 h, read-out: INH.

T1 sequence (P56817 whole entry): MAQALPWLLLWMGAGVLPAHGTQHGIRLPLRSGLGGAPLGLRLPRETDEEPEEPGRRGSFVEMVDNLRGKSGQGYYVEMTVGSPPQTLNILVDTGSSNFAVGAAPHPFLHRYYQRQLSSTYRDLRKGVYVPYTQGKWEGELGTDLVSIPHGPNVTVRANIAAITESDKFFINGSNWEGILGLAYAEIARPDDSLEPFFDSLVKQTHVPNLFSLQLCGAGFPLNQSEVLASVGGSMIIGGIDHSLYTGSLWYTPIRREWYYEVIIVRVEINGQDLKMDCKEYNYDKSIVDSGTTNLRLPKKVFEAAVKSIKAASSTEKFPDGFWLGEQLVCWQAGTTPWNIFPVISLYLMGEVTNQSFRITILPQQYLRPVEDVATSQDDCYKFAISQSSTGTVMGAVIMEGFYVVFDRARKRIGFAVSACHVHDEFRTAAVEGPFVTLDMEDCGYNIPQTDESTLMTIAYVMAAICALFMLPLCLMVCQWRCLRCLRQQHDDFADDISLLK
Sequence of Cathepsin D (P07339 65-162 limits assumed): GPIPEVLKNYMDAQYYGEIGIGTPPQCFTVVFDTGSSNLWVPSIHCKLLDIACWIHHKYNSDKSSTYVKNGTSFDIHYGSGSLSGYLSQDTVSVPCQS
Sequence of Cathepsin D (P07339 169-412 limits assumed): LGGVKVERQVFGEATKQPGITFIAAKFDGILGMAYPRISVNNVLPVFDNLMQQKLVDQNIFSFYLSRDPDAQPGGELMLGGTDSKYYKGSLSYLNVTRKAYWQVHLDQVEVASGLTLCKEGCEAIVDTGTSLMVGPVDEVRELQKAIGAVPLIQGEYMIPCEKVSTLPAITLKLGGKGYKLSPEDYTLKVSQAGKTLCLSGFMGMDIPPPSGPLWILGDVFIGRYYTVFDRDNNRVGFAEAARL

As a reminder, the IC50 is the midpoint of a concentration-inhibition curve. Consider `NC1=N[C@@]2(CO1)c1cc(-c3cccnc3F)ccc1Oc1cnc(C3=CCOCC3)cc12`, for which the IC50 at Beta-secretase 1 [1] is 4.2 nM; against Beta-secretase 1 [2], 0.7 nM; against Cathepsin D, 640 nM. Besides, the results for the fEC50 in the experiment filed under Rattus norvegicus [3] and in the experiment filed under Rattus norvegicus [4] were 27 nM and 60 nM, respectively.
For `CC1(C)C=C(c2cc3c(cn2)Oc2ccc(-c4cccnc4F)cc2[C@@]32COC(N)=N2)CCO1`, the IC50 on Beta-secretase 1 [1] amounted to 7.4 nM; against Beta-secretase 1 [2] it was 0.9 nM; against Cathepsin D, 710 nM. The fEC50 in the experiment listed under Rattus norvegicus [3] is on record as 34 nM; in the experiment listed under Rattus norvegicus [4], 57 nM. Besides, in the experiment listed under Rattus norvegicus [5], the inhibition in vivo at 10 mg/kg stood at 76%.
Take `NC1=N[C@@]2(CO1)c1cc(-c3cccnc3F)ccc1Oc1cnc(C3=CCCOC3)cc12`: the IC50 on Beta-secretase 1 [1] was determined as 7.9 nM; against Beta-secretase 1 [2], 0.5 nM; against Cathepsin D, 1080 nM. Moreover, the results for the fEC50 in the experiment filed under Rattus norvegicus [3] and in the experiment filed under Rattus norvegicus [4] were 16 nM and 31 nM, respectively.
Consider `NC1=N[C@@]2(CO1)c1cc(-c3cccnc3F)ccc1Oc1cnc(C3CCOCC3)cc12`, for which the IC50 came to 49.5 nM at Beta-secretase 1 [1], 7.1 nM on Beta-secretase 1 [2] and 3390 nM against Cathepsin D. In addition, the fEC50 in the experiment filed under Rattus norvegicus [3] was 339 nM; in the experiment listed under Rattus norvegicus [4], 659 nM.
Turning to `NC1=N[C@@]2(CO1)c1cc(-c3cccnc3F)ccc1Oc1cnc(C3CCCOC3)cc12` (some centres undefined), the IC50 was 123 nM against Beta-secretase 1 [1], 11.3 nM against Beta-secretase 1 [2] and 5800 nM against Cathepsin D.
Take `NC1=N[C@@]2(CO1)c1cc(-c3cccnc3F)ccc1Oc1cnc([C@@H]3CCCCO3)cc12`: the IC50 on Cathepsin D turned out to be 11600 nM. That is a double-digit micromolar value.
The same measure, in the same setting: in the case of `NC1=N[C@@]2(CO1)c1cc(-c3cccnc3F)ccc1Oc1cnc([C@H]3CCCCO3)cc12` it was 1040 nM.
With `NC1=N[C@@]2(CO1)c1cc(-c3cccnc3F)ccc1Oc1cnc(N3CCOCC3)cc12`, the IC50 on Beta-secretase 1 [1] worked out at 20.5 nM; against Cathepsin D, 600 nM.
On to `CC1(C)CN(c2cc3c(cn2)Oc2ccc(-c4cccnc4F)cc2[C@@]32COC(N)=N2)CCO1`, for which the IC50 turned out to be 22 nM against Beta-secretase 1 [1], 4 nM at Beta-secretase 1 [2] and 530 nM on Cathepsin D.
In the case of `NC1=N[C@@]2(CO1)c1cc(-c3cccnc3F)ccc1Oc1cnc(N3CCC(F)(F)CC3)cc12`, the IC50 turned out to be 8.7 nM on Beta-secretase 1 [1] and 140 nM against Cathepsin D. In the experiment listed under Rattus norvegicus [4], this molecule returned a fEC50 of 54 nM.
Regarding `NC1=N[C@@]2(CO1)c1cc(-c3cccnc3F)ccc1Oc1cnc(N3CCC(F)(F)C3)cc12`, the IC50 worked out at 4.1 nM against Beta-secretase 1 [1] and 440 nM against Cathepsin D. The fEC50 is reported as 32 nM in the experiment listed under Rattus norvegicus [3] and 38 nM in the experiment filed under Rattus norvegicus [4].
Turning to `NC1=N[C@@]2(CO1)c1cc(-c3cccnc3F)ccc1Oc1cnc(N3CC[C@H](F)C3)cc12`, the midpoint of inhibition at Cathepsin D, the IC50, lay at 2220 nM.
Still for that read-out and setting: in the case of `NC1=N[C@@]2(CO1)c1cc(-c3cccnc3F)ccc1Oc1cnc(N3CC[C@@H](F)C3)cc12` it was 680 nM.
For `NC1=N[C@@]2(CO1)c1cc(-c3cccnc3F)ccc1Oc1cnc(-c3ccccc3)cc12`, the IC50 against Beta-secretase 1 [1] is 25.3 nM; at Beta-secretase 1 [2], 1.4 nM; at Cathepsin D, 650 nM.
On the same counts, the results for `NC1=N[C@@]2(CO1)c1cc(-c3cccnc3F)ccc1Oc1cnc(-c3ccccn3)cc12` are 26.6 nM, 3.8 nM and 4100 nM.
For `NC1=N[C@@]2(CO1)c1cc(-c3cccnc3F)ccc1Oc1cnc(-c3ccncc3)cc12`, the values for the IC50 against Beta-secretase 1 [1], on Beta-secretase 1 [2] and on Cathepsin D were 16 nM, 2.5 nM and 3190 nM, respectively. Also, the fEC50 in the experiment listed under Rattus norvegicus [3] came to 365 nM; in the experiment listed under Rattus norvegicus [4], 745 nM. The inhibition in vivo at 10 mg/kg in the experiment listed under Rattus norvegicus [5] came to 56%.
For the molecule `Cc1cc(-c2cc3c(cn2)Oc2ccc(-c4cccnc4F)cc2[C@@]32COC(N)=N2)ccn1`, the values for the IC50 on Beta-secretase 1 [1], against Beta-secretase 1 [2] and against Cathepsin D were 15 nM, 2.4 nM and 3870 nM, respectively. Also, the fEC50 stood at 30 nM in the experiment listed under Rattus norvegicus [3] and 62 nM in the experiment filed under Rattus norvegicus [4]. In the experiment filed under Rattus norvegicus [5], the inhibition in vivo at 10 mg/kg amounted to 60%.
For `NC1=N[C@]2(CO1)c1cc(C3=CCOCC3)ccc1Oc1ccc(-c3cccnc3F)cc12`, at Beta-secretase 1 [1], the IC50 was 18.5 nM.
